The text below walks through data of PubChem BioAssay AID328 (DTP/NCI, 2004).

Several values for one entry are separate records, joined by “and”; a condition that tells them apart may be missing. Identical values can stand only once. Inconclusive results and toxic doses are left out.

For the assay, the system named is BDF1 mice, P388 leukemia ip, median survival T/C. Description: NCI In Vivo Anticancer Drug Screen. Data for tumor model P388 Leukemia (intraperitoneal) in B6D2F1 (BDF1) mice. To be noted: endpoint: median survival time, higher = longer survival. The essentials: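 Each value expresses how treatment altered survival: treated-mouse outcome over vehicle-mouse outcome, both groups bearing the transplanted tumour.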

Setting [1] is: dose: 100.0 mg/kg/injection, schedule: Q01DX009 (ip), vehicle: saline with Tween-80.
The mark [2] stands for this setting: dose: 200.0 mg/kg/injection, schedule: Q01DX009 (ip), vehicle: saline with Tween-80.
Where [3] appears, read: dose: 25.0 mg/kg/injection, schedule: Q01DX009 (ip), vehicle: saline.
[4] abbreviates: dose: 50.0 mg/kg/injection, schedule: Q01DX009 (ip), vehicle: saline.
Where [5] appears, read: dose: 12.5 mg/kg/injection, schedule: Q01DX009 (ip), vehicle: saline.
The mark [6] stands for this setting: dose: 50.0 mg/kg/injection, schedule: Q04DX003 (ip), vehicle: saline.
[7] abbreviates: dose: 50.0 mg/kg/injection, schedule: Q01DX009 (ip), vehicle: saline with Tween-80.
The mark [8] stands for this setting: dose: 6.25 mg/kg/injection, schedule: Q04DX003 (ip), vehicle: saline sonified.
The mark [9] stands for this setting: dose: 12.5 mg/kg/injection, schedule: Q04DX003 (ip), vehicle: saline sonified.
[10] abbreviates: dose: 100.0 mg/kg/injection, schedule: Q04DX003 (ip), vehicle: saline with Tween-80.
Where [11] appears, read: dose: 200.0 mg/kg/injection, schedule: Q04DX003 (ip), vehicle: saline with Tween-80.
The mark [12] stands for this setting: dose: 400.0 mg/kg/injection, schedule: Q04DX003 (ip), vehicle: saline with Tween-80.

Consider `O=C(O)CCCCCNC(=O)OCc1ccccc1`, for which the T/C was 112 % of control (dose: 100.0 mg/kg/injection, schedule: Q01DX009 (ip), vehicle: gum acacia); 100 % of control (dose: 100.0 mg/kg/injection, schedule: Q04DX003 (ip), vehicle: gum acacia); 104 % of control (dose: 200.0 mg/kg/injection, schedule: Q01DX009 (ip), vehicle: gum acacia); 100 % of control (dose: 200.0 mg/kg/injection, schedule: Q04DX003 (ip), vehicle: gum acacia); 108 % of control (dose: 400.0 mg/kg/injection, schedule: Q01DX009 (ip), vehicle: gum acacia); 116 % of control (dose: 400.0 mg/kg/injection, schedule: Q04DX003 (ip), vehicle: gum acacia).

With `COc1cccc(N2C(=O)CSC2=S)c1`, the T/C is, setting by setting: under setting [1], 91 % of control; under setting [2], 100 % of control.

For `c1ccc2c(c1)OP(OP1Oc3ccccc3O1)O2`, the T/C is 95 % of control under setting [3]; 113 % of control under setting [4]; 113 % of control (dose: 150.0 mg/kg/injection, schedule: Q04DX003 (ip), vehicle: saline).

For the compound `C[N+]1(C)CCCCC1`, the T/C runs as follows: under setting [5], 95 % of control and 100 % of control; (dose: 12.5 mg/kg/injection, schedule: Q04DX003 (ip), vehicle: saline with Tween-80) 101 % of control; under setting [3], 98 % of control and 100 % of control; under setting [6], 100 % of control.

For `COc1ccc(C2=C/C(=C3/C(=O)C=C(C)OC3=O)SS2)cc1`, the T/C runs as follows: under setting [7], 90 % of control; under setting [1], 92 % of control; under setting [2], 97 % of control.

Take `CN(C)CCCOC(=O)CC(C)(C)C`: the T/C (dose: 50.0 mg/kg/injection, schedule: Q01DX005 (ip), vehicle: water) was 91 % of control and the T/C (dose: 100.0 mg/kg/injection, schedule: Q01DX005 (ip), vehicle: water) is 94 % of control.

Consider `CC(C(Cl)c1ccccc1)S(=O)c1ccccc1` (configuration not stated), for which the T/C runs as follows: under setting [7], 108 % of control; under setting [1], 103 % of control; under setting [2], 105 % of control.

As to `CSC(=S)NNC(=O)c1ccc([N+](=O)[O-])cc1`, the T/C is, setting by setting: (dose: 3.13 mg/kg/injection, schedule: Q04DX003 (ip), vehicle: saline sonified) 90 % of control; under setting [8], 100 % of control; under setting [9], 95 % of control.

As for `CC/C(C)=N/Nc1nncn2c1cc1ccccc12`, the T/C by setting is: under setting [7], 94 % of control; under setting [1], 100 % of control; under setting [2], 97 % of control.

`COc1ccccc1NC(=O)CSC(N)=O`: the T/C reads like this: (dose: 100.0 mg/kg/injection, schedule: Q01DX009 (ip), vehicle: Klucel (hydroxypropylcellulose) (HPC)) 110 % of control; (dose: 200.0 mg/kg/injection, schedule: Q01DX009 (ip), vehicle: Klucel (hydroxypropylcellulose) (HPC)) 120 % of control; (dose: 264.0 mg/kg/injection, schedule: Q01DX009 (ip), vehicle: Klucel (hydroxypropylcellulose) (HPC)) 113 % of control and 120 % of control.

As to `Nc1nc2ncc(CNc3ccc(C(=O)NC(CCC(=O)O)C(=O)O)cn3)nc2c(=O)[nH]1` (configuration not stated), the T/C was 92 % of control (dose: 37.5 mg/kg/injection, schedule: Q01DX009 (ip), vehicle: saline with Tween-80); 92 % of control (dose: 62.5 mg/kg/injection, schedule: Q01DX009 (ip), vehicle: saline with Tween-80); 107 % of control (dose: 75.0 mg/kg/injection, schedule: Q01DX009 (ip), vehicle: saline with Tween-80).

As to `CCCCNC(C)(C)C(SSSC(c1cccs1)C(C)(C)NCCCC)c1cccs1` (configuration not stated), the T/C was 113 % of control (dose: 44.0 mg/kg/injection, schedule: Q04DX003 (ip), vehicle: saline with Tween-80); 118 % of control under setting [7]; 100 % of control (dose: 66.0 mg/kg/injection, schedule: Q04DX003 (ip), vehicle: saline with Tween-80); 122 % of control under setting [1]; 118 % of control under setting [10]; 109 % of control (dose: 150.0 mg/kg/injection, schedule: Q04DX003 (ip), vehicle: saline with Tween-80). The T/C by setting is: under setting [2], 118 % of control; under setting [11], 118 % of control; under setting [12], 122 % of control.

Turning to `c1ccc(N2CCNCC2)cc1`, the T/C reads like this: under setting [8], 95 % of control; under setting [9], 100 % of control; (dose: 25.0 mg/kg/injection, schedule: Q04DX003 (ip), vehicle: saline sonified) 104 % of control.

With `COc1ccc2c(c1)NC(c1ccccc1C(=O)O)c1cccn1-2` (configuration not stated), the T/C runs as follows: (dose: 6.25 mg/kg/injection, schedule: Q01DX009 (ip), vehicle: saline with Tween-80) 90 % of control; (dose: 12.5 mg/kg/injection, schedule: Q01DX009 (ip), vehicle: saline with Tween-80) 97 % of control; (dose: 25.0 mg/kg/injection, schedule: Q01DX009 (ip), vehicle: saline with Tween-80) 97 % of control.

Consider `COC(=O)/C(C#N)=C/c1c[nH]c2ccccc12`, for which the T/C runs as follows: under setting [10], 100 % of control; under setting [11], 109 % of control; under setting [12], 100 % of control.

Turning to `CCCCCCCCCCCC[n+]1ccc2ccccc2c1`, the T/C (dose: 1.0 mg/kg/injection, schedule: Q01DX010 (ip), vehicle: saline) is 115 % of control.

As for `CC1(C)N=C(N)N=C(N)N1c1ccc(-c2ccccc2)cc1`, the T/C reads like this: (dose: 25.0 mg/kg/injection, schedule: Q01DX009 (ip), vehicle: Klucel (hydroxypropylcellulose) (HPC)) 99 % of control; (dose: 50.0 mg/kg/injection, schedule: Q01DX009 (ip), vehicle: Klucel (hydroxypropylcellulose) (HPC)) 106 % of control.

In the case of `C=CCNCCN1CCN(CCCN2c3ccccc3Sc3ccc(C(F)(F)F)cc32)CC1`, the T/C reads like this: (dose: 6.25 mg/kg/injection, schedule: Q04DX003 (ip), vehicle: saline) 108 % of control and 110 % of control; (dose: 12.5 mg/kg/injection, schedule: Q04DX003 (ip), vehicle: saline) 87 % of control and 110 % of control; (dose: 25.0 mg/kg/injection, schedule: Q04DX003 (ip), vehicle: saline) 100 % of control and 118 % of control; under setting [6], 116 % of control.

As for `CCCCCCNC1=CC(=O)CC(C)(C)C1`, the T/C was 105 % of control under setting [4]; 99 % of control (dose: 100.0 mg/kg/injection, schedule: Q01DX009 (ip), vehicle: saline); 107 % of control (dose: 200.0 mg/kg/injection, schedule: Q01DX009 (ip), vehicle: saline).

Turning to `CCSc1ncnc2nc[nH]c12`, the T/C (dose: 100.0 mg/kg/injection, schedule: Q04DX003 (ip), vehicle: Klucel (hydroxypropylcellulose) (HPC)) is 104 % of control and the T/C (dose: 200.0 mg/kg/injection, schedule: Q04DX003 (ip), vehicle: Klucel (hydroxypropylcellulose) (HPC)) was 109 % of control.

Take `CCN(CC)CC1CO1` (configuration not stated): the T/C under setting [5] was 100 % of control.

With `COC1C(OC(=O)/C=C/C=C/C=C/C=C/C(=O)O)CCC2(CO2)C1C1(C)OC1CC=C(C)C` (configuration not stated), the T/C runs as follows: (dose: 88.0 mg/kg/injection, schedule: Q04DX003 (ip), vehicle: saline with Tween-80) 281 % of control; (dose: 100.0 mg/kg/injection, schedule: Q04DX003 (ip), vehicle: saline) 100 % of control; (dose: 132.0 mg/kg/injection, schedule: Q04DX003 (ip), vehicle: saline with Tween-80) 281 % of control; (dose: 200.0 mg/kg/injection, schedule: Q04DX003 (ip), vehicle: saline) 117 % of control.

On to `Cc1c[nH]c(=O)[nH]c1=O`, for which the T/C reads like this: (dose: 390.0 mg/kg/injection, schedule: Q04DX003 (ip), vehicle: saline with Tween-80) 98 % of control; (dose: 390.0 mg/kg/injection, schedule: Q## X003 (ip), vehicle: saline with Tween-80) 98 % of control; (dose: 520.0 mg/kg/injection, schedule: Q04DX003 (ip), vehicle: saline with Tween-80) 93 % of control; (dose: 520.0 mg/kg/injection, schedule: Q## X003 (ip), vehicle: saline with Tween-80) 93 % of control.

`CCC[CH2][Sn]1([CH2]CCC)[N](S(=O)(=O)c2ccc(C)cc2)c2ccccc2[N]1S(=O)(=O)c1ccc(C)cc1`: the T/C (dose: 1.5 mg/kg/injection, schedule: Q01DX009 (ip), vehicle: Klucel (hydroxypropylcellulose) (HPC)) was 91 % of control; the T/C (dose: 6.0 mg/kg/injection, schedule: Q01DX009 (ip), vehicle: Klucel (hydroxypropylcellulose) (HPC)) was 150 % of control; the T/C (dose: 12.0 mg/kg/injection, schedule: Q01DX009 (ip), vehicle: Klucel (hydroxypropylcellulose) (HPC)) is 176 % of control.
